Paper PMC9395488, “First-in-human study of IM156, a novel potent biguanide oxidative phosphorylation (OXPHOS) inhibitor, in patients with advanced solid tumors” (Investigational New Drugs, 2022)

System: patients with advanced solid tumors
Experiment: First-in-human phase 1 dose-escalation study: safety, DLTs, adverse events
Assay type: in vivo
Source text: This multicenter first-in-human dose-escalation phase 1 study (clinicaltrials.gov identifier: NCT03272256) was designed to determine the MTD or RP2D and to evaluate the safety and tolerability of IM156. Secondary endpoints included PK characteristics, efficacy assessment (objective response rate [ORR], disease control rate [DCR], duration of response [DoR] and progression-free survival [PFS]). Furthermore, exploratory objectives included identification and profiling of IM156 metabolites, evaluations of exploratory PD markers of IM156, and evaluations of any potential relationship between putative biomarkers and safety/efficacy parameters of IM156. The study was conducted in accordance with Good Clinical Practice, the International Council for Harmonisation, and guidelines governing clinical study conduct and the ethical principles originating from the Declaration of Helsinki. The study was approved by each Institutional Review Board and patients provided written informed consent. Patients were enrolled at three sites in South Korea.
The initial dose and schedule of IM156 was chosen based on animal toxicology studies. […] IM156 was administered in the fasted state, with no food for at least 2 h before and 1 h after dosing.
Three DLT-evaluable patients were enrolled at each dose level. If there were no DLTs or other prohibitive adverse events (AEs), the Safety Committee was allowed to recommend escalation to the next highest dose level. If 1 DLT occurred in the first 3 DLT-evaluable patients, enrollment in that cohort was expanded to an additional 3 DLT-evaluable patients; if ≥ 2 DLTs were reported in a cohort, that dose was considered above the MTD.
Safety was assessed through vital signs, weight, laboratory assessments, physical examinations, electrocardiogram, and reporting of AEs as graded by the National Cancer Institute’s Common Terminology Criteria for Adverse Events v4.03 (NCI-CTCAE).
DLTs were defined as the following AEs if they were attributed as related to IM156: asymptomatic grade 4 neutropenia lasting for ≥ 5 days; febrile neutropenia, regardless of grade; grade 4 thrombocytopenia or grade 3 thrombocytopenia with bleeding; any grade ≥ 3 non-hematologic AE (except grade 3 hypertension and grade 3 nausea, vomiting or diarrhea for which proper measures for prevention and treatment were not implemented, and alopecia); blood lactate levels > 5 mmol; grade ≥ 2 AE prohibiting dosing of IM156 for ≥ 21 continuous days except for alterations in serum calcium or phosphorus levels. The safety analysis includes all patients who received at least one dose of study drug.
The safety population was defined as all patients who received at least one dose of IM156. The PK population was not defined in the protocol but included all patients with sufficient PK data to perform adequate PK modeling. The efficacy population included all patients who underwent at least one tumor imaging assessment while receiving IM156. Safety was assessed using descriptive statistics (e.g., DLTs, AEs, laboratory tests, physical examination, 12-lead ECG). The incidence and number of events were reported for the DLTs observed in Cycle 1 per dose group. […] Adverse events and TRAEs were standardized with the System Organ Class and the Preferred Term using the Medical Dictionary for Regulatory Activities v23.0. In addition, TEAEs, serious adverse events (SAEs), TEAE severity, and TEAEs leading to withdrawal were presented by dose group. Efficacy data were to be presented by Waterfall and Swim Lane plots. Time to event endpoints (e.g., DoR, PFS) were determined using Kaplan–Meier estimations with the median value for each endpoint summarized.

[1] = DL4 800 mg orally every other day (n=3)
[2] = DL5 1200 mg orally every other day (n=3)

Compound: NC(=Nc1ccc(OC(F)(F)F)cc1)N=C(N)N1CCCC1 [IM156]
- TEAE Anaemia grade 4 [1]: 0
- TEAE Appendicitis perforated grade 1 [1]: 0
- TEAE Appendicitis perforated grade 2 [1]: 0
- TEAE Appendicitis perforated grade 3 [1]: 0
- TEAE Appendicitis perforated grade 4 [1]: 0
- TEAE Back pain grade 1 [1]: 0
- TEAE Back pain grade 2 [1]: 2
- TEAE Back pain grade 3 [1]: 0
- TEAE Back pain grade 4 [1]: 0
- TEAE Cystitis grade 1 [1]: 0
- TEAE Cystitis grade 2 [1]: 1
- TEAE Cystitis grade 3 [1]: 0
- TEAE Cystitis grade 4 [1]: 0
- TEAE Dry skin grade 1 [1]: 0
- TEAE Dry skin grade 2 [1]: 0
- TEAE Dry skin grade 3 [1]: 0
- TEAE Dry skin grade 4 [1]: 0
- TEAE Flank pain grade 1 [1]: 0
- TEAE Flank pain grade 2 [1]: 0
- TEAE Flank pain grade 3 [1]: 0
- TEAE Flank pain grade 4 [1]: 0
- TEAE Hypertension grade 1 [1]: 0
- TEAE Hypertension grade 2 [1]: 0
- TEAE Hypertension grade 3 [1]: 0
- TEAE Hypertension grade 4 [1]: 0
- TEAE Hypotension grade 1 [1]: 0
- TEAE Hypotension grade 2 [1]: 0
- TEAE Hypotension grade 3 [1]: 0
- TEAE Hypotension grade 4 [1]: 0
- TEAE Insomnia grade 1 [1]: 0
- TEAE Insomnia grade 2 [1]: 0
- TEAE Insomnia grade 3 [1]: 0
- TEAE Insomnia grade 4 [1]: 0
- TEAE Pain in extremity grade 1 [1]: 0
- TEAE Pain in extremity grade 2 [1]: 1
- TEAE Pain in extremity grade 3 [1]: 0
- TEAE Pain in extremity grade 4 [1]: 0
- TEAE Pruritus grade 1 [1]: 0
- TEAE Pruritus grade 2 [1]: 0
- TEAE Pruritus grade 3 [1]: 0
- TEAE Pruritus grade 4 [1]: 0
- TEAE Psychiatric disorders grade 1 [1]: 0
- TEAE Psychiatric disorders grade 2 [1]: 0
- TEAE Psychiatric disorders grade 3 [1]: 0
- TEAE Psychiatric disorders grade 4 [1]: 0
- TEAE Purpura grade 1 [1]: 0
- TEAE Purpura grade 2 [1]: 0
- TEAE Purpura grade 3 [1]: 0
- TEAE Purpura grade 4 [1]: 0
- TEAE Urinary retention grade 1 [1]: 0
- TEAE Urinary retention grade 2 [1]: 1
- TEAE Urinary retention grade 3 [1]: 0
- TEAE Urinary retention grade 4 [1]: 0
- TEAE Urinary tract disorder grade 1 [1]: 0
- TEAE Urinary tract disorder grade 2 [1]: 0
- TEAE Urinary tract disorder grade 3 [1]: 0
- TEAE Urinary tract disorder grade 4 [1]: 0
- TEAE Abdominal pain, grade 1 (DL5 1200 mg QOD (n=3)): 1
- TEAE Alanine aminotransferase increased, grade 3 (DL5 1200 mg QOD (n=3)): 1
- TEAE Aspartate aminotransferase increased, grade 2 (DL5 1200 mg QOD (n=3)): 1
- TEAE Aspartate aminotransferase increased, grade 3 (DL5 1200 mg QOD (n=3)): 1
- TEAE Asthenia, grade 1 (DL5 1200 mg QOD (n=3)): 1
- TEAE Blood alkaline phosphatase increased, grade 2 (DL5 1200 mg QOD (n=3)): 1
- TEAE Blood alkaline phosphatase increased, grade 3 (DL5 1200 mg QOD (n=3)): 1
- TEAE Constipation, grade 1 (DL5 1200 mg QOD (n=3)): 1
- TEAE Decreased appetite, grade 1 (DL5 1200 mg QOD (n=3)): 1
- TEAE Diarrhoea, grade 1 (DL5 1200 mg QOD (n=3)): 1
- TEAE Diarrhoea, grade 2 (DL5 1200 mg QOD (n=3)): 1
- TEAE Fatigue, grade 2 (DL5 1200 mg QOD (n=3)): 1
- TEAE Gamma-glutamyltransferase increased, grade 2 (DL5 1200 mg QOD (n=3)): 1
- TEAE Gamma-glutamyltransferase increased, grade 3 (DL5 1200 mg QOD (n=3)): 1
- TEAE Headache, grade 1 (DL5 1200 mg QOD (n=3)): 1
- TEAE Hypoalbuminaemia, grade 2 (DL5 1200 mg QOD (n=3)): 1
- TEAE Hypocalcemia, grade 2 (DL5 1200 mg QOD (n=3)): 1
- TEAE Nausea, grade 1 (DL5 1200 mg QOD (n=3)): 1
- TEAE Nausea, grade 3 (DL5 1200 mg QOD (n=3)): 1
- TEAE Oropharyngeal pain, grade 1 (DL5 1200 mg QOD (n=3)): 1
- TEAE Pyrexia, grade 1 (DL5 1200 mg QOD (n=3)): 1
- TEAE Vomiting, grade 1 (DL5 1200 mg QOD (n=3)): 1
- TEAE Vomiting, grade 2 (DL5 1200 mg QOD (n=3)): 1
- TRAE Abdominal Pain, > G3 (patients) (DL5 1,200 mg QOD oral, N = 3): 0
- TRAE Abdominal Pain, All grades (patients) (DL5 1,200 mg QOD oral, N = 3): 0
- TRAE Blood Lactic Acid increased, > G3 (patients) (DL5 1,200 mg QOD oral, N = 3): 0
- TRAE Blood Lactic Acid increased, All grades (patients) (DL5 1,200 mg QOD oral, N = 3): 0
- TRAE Constipation, > G3 (patients) (DL5 1,200 mg QOD oral, N = 3): 0
- TRAE Constipation, All grades (patients) (DL5 1,200 mg QOD oral, N = 3): 0
- TRAE Decreased appetite, > G3 (patients) (DL5 1,200 mg QOD oral, N = 3): 0
- TRAE Decreased appetite, All grades (patients) (DL5 1,200 mg QOD oral, N = 3): 1
- TRAE Diarrhoea, > G3 (patients) (DL5 1,200 mg QOD oral, N = 3): 0
- TRAE Diarrhoea, All grades (patients) (DL5 1,200 mg QOD oral, N = 3): 2
- TRAE Fatigue, > G3 (patients) (DL5 1,200 mg QOD oral, N = 3): 0
- TRAE Fatigue, All grades (patients) (DL5 1,200 mg QOD oral, N = 3): 0
- TRAE Insomnia, > G3 (patients) (DL5 1,200 mg QOD oral, N = 3): 0
- TRAE Insomnia, All grades (patients) (DL5 1,200 mg QOD oral, N = 3): 0
- TRAE Nausea, > G3 (patients) (DL5 1,200 mg QOD oral, N = 3): 1
- TRAE Nausea, All grades (patients) (DL5 1,200 mg QOD oral, N = 3): 2
- TRAE Vomiting, > G3 (patients) (DL5 1,200 mg QOD oral, N = 3): 0
- TRAE Vomiting, All grades (patients) (DL5 1,200 mg QOD oral, N = 3): 2
- TEAE Adrenal insufficiency grade 1 [2]: 0
- TEAE Adrenal insufficiency grade 2 [2]: 1
- TEAE Adrenal insufficiency grade 3 [2]: 0
- TEAE Adrenal insufficiency grade 4 [2]: 0
- TEAE Anaemia grade 1 [2]: 0
- TEAE Anaemia grade 2 [2]: 0
- TEAE Anaemia grade 3 [2]: 1
- TEAE Anaemia grade 4 [2]: 0
- TEAE Appendicitis perforated grade 1 [2]: 0
- TEAE Appendicitis perforated grade 2 [2]: 0
- TEAE Appendicitis perforated grade 3 [2]: 0
- TEAE Appendicitis perforated grade 4 [2]: 0
- TEAE Back pain grade 1 [2]: 0
- TEAE Back pain grade 2 [2]: 0
- TEAE Back pain grade 3 [2]: 0
- TEAE Back pain grade 4 [2]: 0
- TEAE Cystitis grade 1 [2]: 0
- TEAE Cystitis grade 2 [2]: 0
- TEAE Cystitis grade 3 [2]: 0
- TEAE Cystitis grade 4 [2]: 0
